From PubChem BioAssay AID248 (DTP/NCI, 2004)
Values joined by “and” are separate entries in the source; they are usually repeats but may differ in a detail not shown here. Identical values can stand only once. Inconclusive results and toxic doses are left out. Cut-off read from the data, not from the text of the source: active = T/C of 150% or more; inactive = T/C below 125%.

System: L1210 leukemia ip in BDF1 mice, survival T/C
Experiment: NCI In Vivo Anticancer Drug Screen. Data for tumor model L1210 Leukemia (intraperitoneal) in B6D2F1 (BDF1) mice
Settings: endpoint: mean survival time, higher = longer survival
Outline: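 Value reflects the ratio of survival in compound-treated mice to survival in vehicle-treated controls, with both groups carrying the same transplanted tumor.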

[1] = dose: 100.0 mg/kg/injection, schedule: Q04DX003 (ip), vehicle: saline
[2] = dose: 200.0 mg/kg/injection, schedule: Q04DX003 (ip), vehicle: saline
[3] = dose: 400.0 mg/kg/injection, schedule: Q04DX003 (ip), vehicle: saline
[4] = dose: 100.0 mg/kg/injection, schedule: Q04DX003 (ip), vehicle: saline with Tween-80
[5] = dose: 200.0 mg/kg/injection, schedule: Q04DX003 (ip), vehicle: saline with Tween-80
[6] = dose: 400.0 mg/kg/injection, schedule: Q04DX003 (ip), vehicle: saline with Tween-80
[7] = dose: 50.0 mg/kg/injection, schedule: Q04DX003 (ip), vehicle: saline
[8] = dose: 100.0 mg/kg/injection, schedule: Q01DX001 (ip), vehicle: carboxymethylcellulose (CMC)
[9] = dose: 200.0 mg/kg/injection, schedule: Q01DX001 (ip), vehicle: carboxymethylcellulose (CMC)
[10] = dose: 400.0 mg/kg/injection, schedule: Q01DX001 (ip), vehicle: carboxymethylcellulose (CMC)
[11] = dose: 100.0 mg/kg/injection, schedule: Q04DX002 (ip), vehicle: Klucel (hydroxypropylcellulose) (HPC)
[12] = dose: 200.0 mg/kg/injection, schedule: Q04DX002 (ip), vehicle: Klucel (hydroxypropylcellulose) (HPC)
[13] = dose: 400.0 mg/kg/injection, schedule: Q04DX002 (ip), vehicle: Klucel (hydroxypropylcellulose) (HPC)
[14] = dose: 100.0 mg/kg/injection, schedule: Q01DX009 (ip), vehicle: saline with Tween-80
[15] = dose: 200.0 mg/kg/injection, schedule: Q01DX009 (ip), vehicle: saline with Tween-80
[16] = dose: 400.0 mg/kg/injection, schedule: Q01DX009 (ip), vehicle: saline with Tween-80
[17] = dose: 100.0 mg/kg/injection, schedule: Q01DX009 (ip), vehicle: Klucel (hydroxypropylcellulose) (HPC)
[18] = dose: 200.0 mg/kg/injection, schedule: Q01DX009 (ip), vehicle: Klucel (hydroxypropylcellulose) (HPC)
[19] = dose: 400.0 mg/kg/injection, schedule: Q01DX009 (ip), vehicle: Klucel (hydroxypropylcellulose) (HPC)

Measured: T/C

CC(O)C(NCNC(=O)C1=C(O)C2(O)C(=O)C3=C(O)c4c(O)cccc4C(C)(O)C3CC2C(N(C)C)C1=O)C(=O)O (stereo not drawn)
inactive: dose: 1.0 mg/kg/injection, schedule: Q01DX Z (ip), vehicle: saline 110 % of control | dose: 4.0 mg/kg/injection, schedule: Q01DX Z (ip), vehicle: saline 100 % of control | dose: 14.0 mg/kg/injection, schedule: Q01DX Z (ip), vehicle: saline 91 % of control | dose: 15.0 mg/kg/injection, schedule: Q01DX Z (ip), vehicle: saline 96 % of control | dose: 28.0 mg/kg/injection, schedule: Q01DX Z (ip), vehicle: saline 102 % of control | dose: 56.0 mg/kg/injection, schedule: Q01DX Z (ip), vehicle: saline 91 % of control | dose: 60.0 mg/kg/injection, schedule: Q01DX Z (ip), vehicle: saline 98 % of control | [1] 98 % of control | dose: 120.0 mg/kg/injection, schedule: Q01DX Z (ip), vehicle: saline 93 % of control | [2] 100 % of control | dose: 224.0 mg/kg/injection, schedule: Q01DX Z (ip), vehicle: saline 91 % of control | dose: 240.0 mg/kg/injection, schedule: Q01DX Z (ip), vehicle: saline 95 % of control and 98 % of control | [3] 109 % of control | dose: 448.0 mg/kg/injection, schedule: Q01DX Z (ip), vehicle: saline 93 % of control | dose: 480.0 mg/kg/injection, schedule: Q01DX Z (ip), vehicle: saline 107 % of control

O=[N+]([O-])c1ccc(Cl)c(CNc2ncnc3c2ncn3C2CCCCO2)c1 (stereo not drawn)
inactive: [4] 102 % of control | [5] 92 % of control | [6] 102 % of control

Cc1ccncc1C1CCCN1C (stereo not drawn)
inactive: dose: 25.0 mg/kg/injection, schedule: Q04DX003 (ip), vehicle: saline 94 % of control | [7] 102 % of control | [1] 94 % of control

O=C1Nc2ccccc2Oc2ccccc21
inactive: dose: 100.0 mg/kg/injection, schedule: Q01DX009 (ip), vehicle: saline 105 % of control | [1] 92 % of control | dose: 200.0 mg/kg/injection, schedule: Q01DX009 (ip), vehicle: saline 93 % of control | [2] 91 % of control | dose: 400.0 mg/kg/injection, schedule: Q01DX009 (ip), vehicle: saline 98 % of control | [3] 92 % of control

NCCc1ccc(NC(=O)c2ccc(C(=O)Nc3ccc(CCN)cc3)c([N+](=O)[O-])c2)cc1
inactive: dose: 1.56 mg/kg/injection, schedule: Q01DX015 (ip), vehicle: methylcellulose (MC) 94 % of control | dose: 3.12 mg/kg/injection, schedule: Q01DX015 (ip), vehicle: methylcellulose (MC) 94 % of control | dose: 6.25 mg/kg/injection, schedule: Q01DX015 (ip), vehicle: methylcellulose (MC) 94 % of control | dose: 12.5 mg/kg/injection, schedule: Q01DX015 (ip), vehicle: methylcellulose (MC) 98 % of control and 92 % of control | dose: 25.0 mg/kg/injection, schedule: Q01DX015 (ip), vehicle: methylcellulose (MC) 104 % of control

O=C(O)c1ccc(P(=O)(O)O)cc1[N+](=O)[O-]
inactive: [7] 95 % of control | [1] 100 % of control

CCCCC(=O)N/N=C\c1cccc(I)c1
inactive: [8] 87 % of control | [9] 93 % of control | [10] 87 % of control

COc1ccccc1C(=O)C=C(C(F)(F)F)C(F)(F)F
inactive: [4] 95 % of control | [5] 97 % of control

C=C1C(=O)OC2C(=O)OC(CCCCCCCC)C12 (stereo not drawn)
inactive: dose: 6.2 mg/kg/injection, schedule: Q04DX002 (ip), vehicle: Klucel (hydroxypropylcellulose) (HPC) 97 % of control | dose: 12.5 mg/kg/injection, schedule: Q04DX002 (ip), vehicle: Klucel (hydroxypropylcellulose) (HPC) 94 % of control | dose: 25.0 mg/kg/injection, schedule: Q04DX002 (ip), vehicle: Klucel (hydroxypropylcellulose) (HPC) 97 % of control and 104 % of control

CS(=O)(=O)Oc1ccc2ccccc2c1[N+](=O)[O-]
inactive: [8] 98 % of control | [9] 98 % of control | [10] 98 % of control

CC1(CC(=O)NN)OCCO1
inactive: dose: 100.0 mg/kg/injection, schedule: Q01DX001 (ip), vehicle: Klucel (hydroxypropylcellulose) (HPC) 104 % of control | dose: 200.0 mg/kg/injection, schedule: Q01DX001 (ip), vehicle: Klucel (hydroxypropylcellulose) (HPC) 102 % of control | dose: 400.0 mg/kg/injection, schedule: Q01DX001 (ip), vehicle: Klucel (hydroxypropylcellulose) (HPC) 107 % of control

O=C(/C=C/c1ccccc1)N/N=C/c1ccccc1Cl
inactive: dose: 50.0 mg/kg/injection, schedule: Q04DX002 (ip), vehicle: Klucel (hydroxypropylcellulose) (HPC) 108 % of control | [11] 100 % of control and 116 % of control | [12] 111 % of control | [13] 101 % of control and 110 % of control

Cc1cc(=O)[nH]c(Nc2nc3cc(Cl)c(Cl)cc3[nH]2)n1
inactive: [14] 92 % of control | [15] 90 % of control | [16] 97 % of control

CN(C)c1ccc(/C=C/c2ccc([N+](=O)[O-])cc2[N+](=O)[O-])c(Cl)c1
inactive: dose: 50.0 mg/kg/injection, schedule: Q01DX009 (ip), vehicle: saline with Tween-80 88 % of control | [14] 100 % of control | [15] 91 % of control

CCCCCCCCCCCCCCCC[N+]1(CC)CCCC1
inactive: dose: 25.0 mg/kg/injection, schedule: Q04DX002 (ip), vehicle: saline 96 % of control | dose: 50.0 mg/kg/injection, schedule: Q04DX002 (ip), vehicle: saline 96 % of control

CC(=O)c1ccc(OC(=O)Nc2ccc(C)cc2)cc1
inactive: [17] 109 % of control | [18] 105 % of control | [19] 88 % of control

CC(=O)CC(Cl)(C(F)(F)F)C(F)(F)F
inactive: dose: 50.0 mg/kg/injection, schedule: Q04DX003 (ip), vehicle: saline with Tween-80 100 % of control | [4] 100 % of control | [5] 86 % of control | [6] 88 % of control

C/C=C/C(=O)Nc1cccc(Cl)c1
inactive: dose: 100.0 mg/kg/injection, schedule: Q01DX009 (ip), vehicle: other 92 % of control | dose: 200.0 mg/kg/injection, schedule: Q01DX009 (ip), vehicle: other 100 % of control

N#Cc1cc(Cl)cc(Cl)c1
inactive: [8] 98 % of control | [9] 104 % of control | [10] 93 % of control

C1C2C1C1C3C2C2C4C5CC5C5C2C1C1C5C4C31 (stereo not drawn)
inactive: dose: 50.0 mg/kg/injection, schedule: Q01DX001 (ip), vehicle: saline 106 % of control | dose: 100.0 mg/kg/injection, schedule: Q01DX001 (ip), vehicle: saline 112 % of control | dose: 200.0 mg/kg/injection, schedule: Q01DX001 (ip), vehicle: saline 122 % of control | dose: 400.0 mg/kg/injection, schedule: Q01DX001 (ip), vehicle: saline 106 % of control

Cc1cccc(Cl)c1NC(=O)Nc1c(C)n(C)n(-c2ccccc2)c1=O
inactive: [17] 100 % of control | [18] 102 % of control | [19] 100 % of control

COc1ccc2c(cc1=O)CC=CC1CC(OC)C(OC)C(OC)C21 (stereo not drawn)
inactive: [4] 92 % of control | [5] 93 % of control | [6] 101 % of control

Cc1ccc(OCC(O)CN2CCN(c3ccc(Cl)cc3)CC2)cc1 (stereo not drawn)
inactive: dose: 63.0 mg/kg/injection, schedule: Q01DX015 (ip), vehicle: carboxymethylcellulose (CMC) 95 % of control | [4] 91 % of control | dose: 125.0 mg/kg/injection, schedule: Q01DX015 (ip), vehicle: carboxymethylcellulose (CMC) 95 % of control | [5] 94 % of control | dose: 250.0 mg/kg/injection, schedule: Q01DX015 (ip), vehicle: carboxymethylcellulose (CMC) 95 % of control | [6] 89 % of control | dose: 500.0 mg/kg/injection, schedule: Q01DX015 (ip), vehicle: carboxymethylcellulose (CMC) 91 % of control | dose: 1000.0 mg/kg/injection, schedule: Q01DX015 (ip), vehicle: carboxymethylcellulose (CMC) 95 % of control

O=C1OC(OC(=O)c2ccccc2)C(NC2CCCCC2)=C1Br (stereo not drawn)
inactive: [14] 98 % of control | [15] 96 % of control | [16] 98 % of control

COC1OC2COCOC2C(OS(=O)(=O)c2ccc(C)cc2)C1OS(=O)(=O)c1ccc(C)cc1 (stereo not drawn)
inactive: [11] 100 % of control | [4] 89 % of control | [12] 95 % of control | [5] 86 % of control | [13] 92 % of control
